The record followed here is EP2077105A1, “Ophthalmic Micellar Compositions with Enhanced Stability” (Novagali Pharma S.A., priority 2008, dated 2009).

The data set can be described thus: Zeta potential of emulsion surface. In kind it is physicochemical. The note with it: 0.02% BAK and 0.002% CKC in emulsion. From the text:
All the eye drops were supplied by Novagali Pharma (Evry, France) and were sterile with physiological pH and osmolality. The present Applicants chose to compare 0.02% BAK to 0.002% CKC since these two QAC concentrations confer equivalent positive charge to the emulsion surface (zeta potential around 20 mV).

`CCCCCCCCCCCCCCCC[N+](C)(C)Cc1ccccc1` [Cetalkonium chloride, cetalkonium chloride]: the zeta potential result is on record as “around 20 mV”.
